Data on 5 compounds can be found in patent US8937073B2, “Disubstituted tetrahydrofuranyl compounds and their use as B1-receptor antagonists” (Boehringer Ingelheim International GmbH, priority 2010, dated 2015).

The assay deals with T1, cynomolgus B1 receptor (Macaca fascicularis, UniProt Q3BCU0).
T1 construct: expressed in transfected cells; host or cells: CHO cells
T1 sequence (Q3BCU0 1-352): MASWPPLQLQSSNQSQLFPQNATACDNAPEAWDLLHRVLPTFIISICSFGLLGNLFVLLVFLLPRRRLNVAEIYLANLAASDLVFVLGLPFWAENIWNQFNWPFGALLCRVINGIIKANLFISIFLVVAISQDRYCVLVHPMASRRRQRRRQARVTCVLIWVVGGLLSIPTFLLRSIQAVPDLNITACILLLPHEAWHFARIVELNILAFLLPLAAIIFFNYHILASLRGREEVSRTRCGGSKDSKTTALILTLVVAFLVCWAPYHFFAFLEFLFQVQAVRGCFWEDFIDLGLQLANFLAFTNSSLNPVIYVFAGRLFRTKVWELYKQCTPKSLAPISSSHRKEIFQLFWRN
Description: cynoBK1-receptor binding assay. The settings on record: homogenate of CHO cells expressing the cynomolgus B1 receptor; radioligand 0.5 to 5.0 nM kallidine (DesArg10,Leu9), [3,4-Prolyl-3,43H(N)]; 60-180 minutes at ambient temperature. The protocol: Description of the Method of Binding the cynoBK1-Receptor
CHO cells that express the cynomolgus B1 receptor are cultivated in “HAM′S F-12 Medium”. The medium is removed from confluent cultures, the cells are washed with PBS buffer, scraped off or detached using Versene and isolated by centrifuging. Then the cells are homogenised in suspension, the homogenate is centrifuged and resuspended. After the protein content has been determined 200 μl of the homogenate (50 to 250 μg protein/assay) are incubated for 60-180 minutes at ambient temperature with 0.5 to 5.0 nM kallidine (DesArg10,Leu9), [3,4-Prolyl-3,43H(N)] and increasing concentrations of the test substance in a total volume of 250 μl. The incubation is stopped by rapid filtration through GF/B glass fibre filters that have been pre-treated with polyethyleneimine (0.3%). The radioactivity bound to the protein is measured with a TopCount NXT. The radioactivity bound in the presence of 1.0 μM kallidine (DesArg10) is defined as non-specific binding. The concentration binding curve may be analysed using computer-aided non-linear curve fitting to determine the corresponding Ki value for the test substance.
Test Results of the cynoBK1-Receptor Binding Assay: […]
What is called Ki is a measure of affinity in units of concentration, obtained from inhibition or displacement. The compound `COc1ccc(Nc2ccc(CNC(=O)[C@]3(NC(=O)c4cn[nH]c(=O)c4)CCOC3)c(F)c2)c(C(F)(F)F)c1` [Example 21] showed a Ki of 1.6 nM.
As for “(S)-5-amino-N-(3-{[3-chloro-5-(4-methoxy-2-trifluoromethyl-phenylamino)-pyridin-2-yl-methyl]-carbamoyl}-tetrahydrofuran-3-yl)-nicotinamide [Example 6]”, the figure is 18 nM; as for “(S)-5-amino-N-(3-{[3-fluoro-5-(4-methoxy-2-trifluoromethyl-phenylamino)-pyridin-2-ylmethyl]-carbamoyl}-tetrahydrofuran-3-yl)-nicotinamide [Example 3]”, 4.7 nM.
Under “(S)-5-amino-N-{3-[4-(4-methoxy-2-trifluoromethyl-phenylamino)-benzylcarbamoyl]-tetrahydrofuran-3-yl}-nicotinamide [Example 4]” stands 3.6 nM; under “(S)-6-oxo-1,6-dihydro-pyridazine-4-carboxylic acid-{3-[2-fluoro-4-(4-methoxy-2-trifluoromethyl-phenylamino)-benzylcarbamoyl]-tetrahydrofuran-3-yl}-amide [Example 1]”, 1 nM.
